System: dental root or periodontal tissue
Assay: Transplantation of mouse molar embedded in agarose beads containing fargesin into host mouse kidney capsule; micro CT
Assay type: in vivo, C57BL/6 mouse
Details: beads soaked in 80 μm fargesin in PBS, molar of 5-day-old mouse grafted into kidney capsule of 8-week-old host mouse, 3 weeks, vs PBS control
Protocol: The following experiment was performed in order to investigate the promoting effect of the fargesin isolated from the Magnolia flower extract on the growth of dental root or periodontal tissue.
Particularly, the fargesin obtained in Example 1 was diluted in PBS (Dainippon Pharmaceuticals Inc., Japan) at the final concentration of 80 μm, and four agarose beads (Affi-Gel Blue Gel, #153-7301, Bio-Rad Laboratories Inc., Japan) were washed with PBS, followed by reaction for at least 60 minutes to allow the fargesin to be absorbed in those beads. For the control, 4 other beads were reacted only with PBS. A 5-day-old C57BL/6 mouse (Sankyo Labo Service Corporation, Japan) was sacrificed, from which molars were extracted from the lower jaws. Dental pulp of the extracted molar was embedded in the agarose beads containing fargesin. For the control, dental pulp of the extracted molar was embedded in the agarose beads containing PBS alone. The agarose beads were each grafted into capsules of the 8-week-old C57BL/6 host mouse (female, Sankyo Labo Service Corporation, Japan) kidneys. The host mice were raised in the conditions of 12 h/12 h light and dark cycle, room temperature, and free feeding. 3 weeks later, the mice were sacrificed, from which the kidneys were extracted. Then, the teeth were observed. The 3D image of the teeth was taken by micro CT (Rigaku R_mCT2).

Compound: COc1ccc([C@@H]2OC[C@H]3[C@@H]2CO[C@@H]3c2ccc3c(c2)OCO3)cc1OC [fargesin]
- formation of alveolar bone around the grafted tooth: observed
- growth of dental root: significant
